Experimental data as given in BindingDB's records for doi:10.7270/Q2KW5DFJ (Emory University, 2007).

Target: T1, Ubiquitin carboxyl-terminal hydrolase BAP1 (Homo sapiens, UniProt Q92560)
T1 sequence (Q92560 whole entry): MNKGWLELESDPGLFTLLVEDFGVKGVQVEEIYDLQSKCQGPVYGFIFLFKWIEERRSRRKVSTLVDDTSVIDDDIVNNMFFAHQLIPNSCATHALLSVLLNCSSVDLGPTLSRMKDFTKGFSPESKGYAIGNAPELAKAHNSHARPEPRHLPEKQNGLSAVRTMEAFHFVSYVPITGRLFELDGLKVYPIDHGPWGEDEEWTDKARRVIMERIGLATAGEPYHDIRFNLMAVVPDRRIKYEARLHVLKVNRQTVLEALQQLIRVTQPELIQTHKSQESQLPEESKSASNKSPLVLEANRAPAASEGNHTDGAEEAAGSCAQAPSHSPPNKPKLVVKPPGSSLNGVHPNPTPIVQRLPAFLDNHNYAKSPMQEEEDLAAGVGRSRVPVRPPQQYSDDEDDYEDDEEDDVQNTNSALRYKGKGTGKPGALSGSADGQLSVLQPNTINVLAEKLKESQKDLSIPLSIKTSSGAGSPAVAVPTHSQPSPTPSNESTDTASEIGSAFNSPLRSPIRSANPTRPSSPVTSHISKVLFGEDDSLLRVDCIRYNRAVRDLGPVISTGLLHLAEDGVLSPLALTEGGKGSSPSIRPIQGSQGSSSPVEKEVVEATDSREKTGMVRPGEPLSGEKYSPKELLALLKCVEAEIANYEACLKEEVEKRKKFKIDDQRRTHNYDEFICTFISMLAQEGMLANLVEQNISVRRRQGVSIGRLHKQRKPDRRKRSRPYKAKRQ
Assay: inhibition of BAP1 ubiquitin hydrolase activity – biochemical, dose response (AID 714)

Row | IC50 [µM] | SMILES
1 | 33.9 | CCCOC(=O)C1=C(C)N=C2CCCC(=O)C2C1c1cccc(OC)c1OC (configuration not stated) [4-(2,3-dimethoxyphenyl)-2-methyl-5-oxo-4,6,7,8-tetrahydro-1H-quinoline-3-carboxylic acid propyl ester]
2 | > 50 | CC(=O)C1=C(C)N=C(SCC(=O)c2ccc(Cl)c(Cl)c2)C(C#N)C1c1ccco1 (configuration not stated) [5-acetyl-2-[2-(3,4-dichlorophenyl)-2-oxoethyl]sulfanyl-4-(furan-2-yl)-6-methyl-1,4-dihydropyridine-3-carbonitrile]
